Experimental data as given in the NIST ThermoML archive (doi:10.1016/j.jct.2018.09.011).
“And” between values parts separate entries of the source, which are not always exact repeats. Equal entries are not always repeated.

Experiments:
[1] = for Normal melting temperature: DTA
[2] = Molar enthalpy of transition or fusion; conditions: Crystal; DSC

Nc1ccccc1O [2-hydroxybenzenamine]
[1], Crystal, Calculated from knudsen effusion weight loss
Conditions | vapor or sublimation pressure
321.12 K | 0.000107 kPa and 0.000105 kPa and 0.000106 kPa
323.43 K | 0.000141 kPa and 0.000138 kPa and 0.000139 kPa
325.14 K | 0.00017 kPa and 0.000172 kPa
327.13 K | 0.000212 kPa and 0.000214 kPa
329.3 K | 0.000271 kPa and 0.000277 kPa and 0.000275 kPa
331.21 K | 0.000343 kPa and 0.000335 kPa and 0.00034 kPa
333.13 K | 0.000423 kPa and 0.000419 kPa
335.33 K | 0.000534 kPa and 0.000541 kPa and 0.000538 kPa
337.2 K | 0.000661 kPa and 0.000654 kPa and 0.000657 kPa
339.14 K | 0.000824 kPa and 0.000835 kPa and 0.000826 kPa
341.33 K | 0.001036 kPa and 0.001041 kPa and 0.001043 kPa
343.26 K | 0.00129 kPa and 0.001263 kPa

Conditions | Normal melting temperature [°C]
[1], Crystal | 174.38

Conditions | Molar enthalpy of transition or fusion [kJ/mol]
[2] | 32.6

Nc1cccc(O)c1 [3-hydroxybenzenamine]
[1], Crystal, Calculated from knudsen effusion weight loss
Conditions | vapor or sublimation pressure
321.35 K | 0.000101 kPa and 0.000102 kPa
323.2 K | 0.000127 kPa and 0.000126 kPa
325.17 K | 0.000163 kPa and 0.000161 kPa and 0.000162 kPa
327.4 K | 0.000209 kPa and 0.000211 kPa and 0.00021 kPa
329.2 K | 0.00026 kPa and 0.000259 kPa
331.17 K | 0.000327 kPa and 0.00033 kPa and 0.000328 kPa
333.37 K | 0.000422 kPa and 0.00042 kPa
335.2 K | 0.000513 kPa and 0.0005 kPa and 0.00051 kPa
337.16 K | 0.00063 kPa and 0.000633 kPa
339.36 K | 0.000816 kPa and 0.000808 kPa and 0.000818 kPa
341.19 K | 0.00099 kPa and 0.000998 kPa and 0.001 kPa
343.33 K | 0.001245 kPa and 0.001241 kPa and 0.001238 kPa

[1]
Conditions | vapor or sublimation pressure [kPa]
354.45 K, Crystal | 0.00426
356.39 K, Crystal | 0.00515
358.34 K, Crystal | 0.00622
360.33 K, Crystal | 0.00754
362.32 K, Crystal | 0.00913
364.28 K, Crystal | 0.01083
366.24 K, Crystal | 0.01321
368.21 K, Crystal | 0.01572
369.99 K, Metastable liquid | 0.02985
370.19 K, Crystal | 0.01886
371.93 K, Metastable liquid | 0.03445
372.14 K, Crystal | 0.02314
373.94 K, Metastable liquid | 0.03983
374.12 K, Crystal | 0.02745
375.91 K, Metastable liquid | 0.04535
376.1 K, Crystal | 0.03277
377.86 K, Metastable liquid | 0.05245
378.06 K, Crystal | 0.0385
379.83 K, Metastable liquid | 0.06035
380.03 K, Crystal | 0.04532
381.81 K, Metastable liquid | 0.06885
382.13 K, Crystal | 0.05475
383.79 K, Metastable liquid | 0.07865
383.96 K, Crystal | 0.06316
385.75 K, Metastable liquid | 0.08925
385.9 K, Crystal | 0.07525
387.75 K, Metastable liquid | 0.1024
387.9 K, Crystal | 0.08917
389.74 K, Metastable liquid | 0.1162
389.85 K, Crystal | 0.1058
391.73 K, Metastable liquid | 0.131
391.83 K, Crystal | 0.1242
393.68 K, Metastable liquid | 0.1478
395.67 K, Metastable liquid | 0.1684
397.62 K, Liquid | 0.1915
399.72 K, Liquid | 0.2191
401.54 K, Liquid | 0.2426
403.63 K, Liquid | 0.2731
405.59 K, Liquid | 0.3119
407.46 K, Liquid | 0.3461
409.54 K, Liquid | 0.3932
411.5 K, Liquid | 0.4342
413.47 K, Liquid | 0.4825
415.43 K, Liquid | 0.5451
417.4 K, Liquid | 0.6031
419.39 K, Liquid | 0.6721
421.33 K, Liquid | 0.7506
423.31 K, Liquid | 0.8416

Conditions | Normal melting temperature [°C]
[1], Crystal | 121.48

Conditions | Molar enthalpy of transition or fusion [kJ/mol]
[2] | 23.4

Nc1ccc(O)cc1 [4-hydroxybenzenamine]
[1], Crystal, Calculated from knudsen effusion weight loss
Conditions | vapor or sublimation pressure
337.15 K | 0.000113 kPa and 0.000111 kPa
339.54 K | 0.000144 kPa and 0.000147 kPa and 0.000145 kPa
341.2 K | 0.000179 kPa and 0.000175 kPa and 0.000177 kPa
343.15 K | 0.000223 kPa and 0.000221 kPa and 0.000219 kPa
345.47 K | 0.000284 kPa and 0.00028 kPa and 0.000287 kPa
347.19 K | 0.000348 kPa and 0.000342 kPa and 0.000344 kPa
349.15 K | 0.000425 kPa and 0.000418 kPa and 0.000431 kPa
351.21 K | 0.000527 kPa and 0.000533 kPa and 0.00053 kPa
353.2 K | 0.000653 kPa and 0.000634 kPa and 0.000645 kPa
355.14 K | 0.000787 kPa and 0.000786 kPa and 0.000796 kPa
357.46 K | 0.001018 kPa and 0.001002 kPa and 0.001003 kPa
359.19 K | 0.001205 kPa and 0.001211 kPa and 0.001198 kPa

Conditions | Normal melting temperature [°C]
[1], Crystal | 186.89

Conditions | Molar enthalpy of transition or fusion [kJ/mol]
[2] | 31.4
